Several values for one entry are separate records, joined by “and”; a condition that tells them apart may be missing. Identical values can stand only once.
Key:
[1] = cynomolgus monkey, in vivo
From the text: Animals. […] Solvent was used as vehicle for the control group.
The animals used in this analysis were cynomolgus monkeys (Macaca fascicularis), supplied by Centre de Recherches Primatologiques, Port Louis, Mauritius. Two animals were used per group and sex. At the beginning of the treatment period, the animals were at least 24 months old, with a body weight of approximately 3 kg. Animals were kept under standard conditions for animal welfare. Animals were examined daily for mortality, food consumption and clinical observations. Body weight was recorded once per week.

[2] = Blood pressure; format: in vivo, cynomolgus monkeys (Macaca fascicularis); conditions: for Blood Pressure Difference: Week 2 vs Week-1; for Blood Pressure Week-1: before dosing
[3] = Haematology; format: in vivo, cynomolgus monkeys (Macaca fascicularis)
From the text: Blood sampling. […] Blood samples were taken from a peripheral vein.

Question: Which “Food Consumption Avg., Both animals” value [1] does the source give for `CC(C)C[C@H](NC(=O)[C@H](CCCCN)NC(=O)CNC(=O)[C@H](CC(C)C)NC(=O)[C@@H](NC(=O)[C@@H]1CSSC[C@H](N)C(=O)N[C@@H](CO)C(=O)N[C@@H](CC(N)=O)C(=O)N[C@@H](CC(C)C)C(=O)N[C@@H](CO)C(=O)N[C@@H]([C@@H](C)O)C(=O)N1)C(C)C)C(=O)N[C@@H](CO)C(=O)N[C@@H](CCC(N)=O)C(=O)N[C@@H](CCC(=O)O)C(=O)N[C@@H](CC(C)C)C(=O)N[C@@H](Cc1c[nH]cn1)C(=O)N[C@@H](CCCCN)C(=O)N[C@@H](CC(C)C)C(=O)N[C@@H](CCC(N)=O)C(=O)N[C@H](C(=O)N[C@@H](Cc1ccc(O)cc1)C(=O)N1CCC[C@H]1C(=O)N[C@@H](CCCNC(=N)N)C(=O)N[C@H](C(=O)N[C@@H](CC(N)=O)C(=O)N[C@H](C(=O)NCC(=O)N[C@@H](CO)C(=O)NCC(=O)N[C@H](C(=O)N1CCC[C@H]1C(N)=O)[C@@H](C)O)[C@@H](C)O)[C@@H](C)O)[C@@H](C)O` [Salmon Calcitonin] here?
Answer: 72.9

Question: And the “Blood Pressure Week 2” value ([2]; Female, first line per animal)?
Answer: 82 mmHg and 44 mmHg

Question: What about the “Blood Pressure Difference” value ([2]; Female, first line per animal) of the same compound?
Answer: −16 mmHg and −48 mmHg

Question: What about the “Blood Pressure Week-1” value ([2]; Female, first line per animal) of the same compound?
Answer: 98 mmHg and 92 mmHg

Question: What about the “Blood Pressure Week 2” value ([2]; Female, second line per animal) of the same compound?
Answer: 25 mmHg and 30 mmHg

Question: What about the “Blood Pressure Difference” value ([2]; Female, second line per animal) of the same compound?
Answer: −25 mmHg and 4 mmHg

Question: And the “Blood Pressure Week-1” value ([2]; Female, second line per animal)?
Answer: 50 mmHg and 26 mmHg

Question: And the “Blood Pressure Week 2” value ([2]; Male, first line per animal)?
Answer: 99 mmHg and 79 mmHg

Question: What about the “Blood Pressure Difference” value ([2]; Male, first line per animal) of the same compound?
Answer: −36 mmHg and −23 mmHg

Question: And the “Blood Pressure Week-1” value ([2]; Male, first line per animal)?
Answer: 135 mmHg and 102 mmHg

Question: And the “Blood Pressure Week 2” value ([2]; Male, second line per animal)?
Answer: 40 mmHg and 35 mmHg

Question: And the “Blood Pressure Difference” value ([2]; Male, second line per animal)?
Answer: −21 mmHg

Question: And the “Blood Pressure Week-1” value ([2]; Male, second line per animal)?
Answer: 61 mmHg and 56 mmHg

Question: And the L ([3]; females, d 7)?
Answer: 4.61 G/L and 6.21 G/L

Question: And the MCH ([3]; females, d 7)?
Answer: 18.6 pg and 19.4 pg

Question: What about the MCV ([3]; females, d 7) of the same compound?
Answer: 64 fL and 68 fL

Question: What about the PCV ([3]; females, d 7) of the same compound?
Answer: 0.4 l/l and 0.44 l/l

Question: What about the PLAT ([3]; females, d 7) of the same compound?
Answer: 594 G/L and 356 G/L

Question: And the RBC ([3]; females, d 7)?
Answer: 6.2 T/l and 6.6 T/l

Question: And the WBC ([3]; females, d 7)?
Answer: 9.5 G/l and 17 G/l

Question: What about the monocyte count ([3]; females, d 7) of the same compound?
Answer: 0.63 G/l and 0.82 G/l

Question: What about the B ([3]; females, d 13) of the same compound?
Answer: 0.03 G/L and 0.05 G/L

Question: What about the L ([3]; females, d 13) of the same compound?
Answer: 5.18 G/L and 6.58 G/L

Question: What about the MCH ([3]; females, d 13) of the same compound?
Answer: 19.5 pg

Question: What about the MCV ([3]; females, d 13) of the same compound?
Answer: 64 fL and 65 fL

Question: What about the PCV ([3]; females, d 13) of the same compound?
Answer: 0.33 l/l and 0.37 l/l

Question: And the PLAT ([3]; females, d 13)?
Answer: 451 G/L and 229 G/L

Question: What about the RBC ([3]; females, d 13) of the same compound?
Answer: 5.2 T/l and 5.7 T/l

Question: What about the WBC ([3]; females, d 13) of the same compound?
Answer: 12 G/l and 13.3 G/l

Question: And the monocyte count ([3]; females, d 13)?
Answer: 0.69 G/l and 0.39 G/l

Question: And the B ([3]; females, d −8 (before dosing))?
Answer: 0.02 G/L and 0.01 G/L

Question: What about the E ([3]; females, d −8 (before dosing)) of the same compound?
Answer: 0.03 G/L

Question: What about the L ([3]; females, d −8 (before dosing)) of the same compound?
Answer: 3.26 G/L and 4.79 G/L

Question: What about the MCH ([3]; females, d −8 (before dosing)) of the same compound?
Answer: 19.1 pg and 19.8 pg

Question: What about the MCV ([3]; females, d −8 (before dosing)) of the same compound?
Answer: 61 fL and 65 fL

Question: What about the PCV ([3]; females, d −8 (before dosing)) of the same compound?
Answer: 0.4 l/l and 0.45 l/l

Question: And the PLAT ([3]; females, d −8 (before dosing))?
Answer: 549 G/L and 304 G/L

Question: What about the RBC ([3]; females, d −8 (before dosing)) of the same compound?
Answer: 6.5 T/l and 7 T/l

Question: And the WBC ([3]; females, d −8 (before dosing))?
Answer: 7 G/l and 8.3 G/l

Question: What about the monocyte count ([3]; females, d −8 (before dosing)) of the same compound?
Answer: 0.25 G/l and 0.3 G/l

Question: And the B ([3]; males, d 7)?
Answer: 0.04 G/l

Question: And the E ([3]; males, d 7)?
Answer: 0.10 G/l and 0.09 G/l

Question: What about the HB ([3]; males, d 7) of the same compound?
Answer: 11.7 g/dL and 11.5 g/dL

Question: What about the L ([3]; males, d 7) of the same compound?
Answer: 6.79 G/l and 5.57 G/l

Question: And the M ([3]; males, d 7)?
Answer: 0.73 G/l and 0.45 G/l

Question: And the MCH ([3]; males, d 7)?
Answer: 19.9 pg and 19.2 pg

Question: What about the MCHC ([3]; males, d 7) of the same compound?
Answer: 30.3 g/dL and 31.3 g/dL

Question: And the MCV ([3]; males, d 7)?
Answer: 66 fL and 62 fL

Question: And the PCV ([3]; males, d 7)?
Answer: 0.39 l/l and 0.37 l/l

Question: And the PLAT ([3]; males, d 7)?
Answer: 396 G/l and 330 G/l

Question: What about the RBC ([3]; males, d 7) of the same compound?
Answer: 5.9 T/l and 6.0 T/l

Question: What about the WBC ([3]; males, d 7) of the same compound?
Answer: 11.8 G/l and 9.5 G/l

Question: What about the B ([3]; males, d 13) of the same compound?
Answer: 0.03 G/l

Question: What about the HB ([3]; males, d 13) of the same compound?
Answer: 11.2 g/dL and 10.3 g/dL

Question: And the L ([3]; males, d 13)?
Answer: 5.38 G/l and 4.92 G/l

Question: And the M ([3]; males, d 13)?
Answer: 0.57 G/l and 0.76 G/l

Question: And the MCH ([3]; males, d 13)?
Answer: 20.2 pg and 19.2 pg

Question: And the MCHC ([3]; males, d 13)?
Answer: 29.0 g/dL and 28.7 g/dL

Question: What about the MCV ([3]; males, d 13) of the same compound?
Answer: 70 fL and 67 fL

Question: What about the PCV ([3]; males, d 13) of the same compound?
Answer: 0.39 l/l and 0.36 l/l

Question: And the PLAT ([3]; males, d 13)?
Answer: 302 G/l and 389 G/l

Question: And the RBC ([3]; males, d 13)?
Answer: 5.6 T/l and 5.4 T/l

Question: And the WBC ([3]; males, d 13)?
Answer: 8.0 G/l and 8.8 G/l

Question: And the HB ([3]; males, d −6 (before dosing))?
Answer: 12.6 g/dL and 13.6 g/dL

Question: What about the L ([3]; males, d −6 (before dosing)) of the same compound?
Answer: 4.00 G/l and 6.55 G/l

Question: What about the MCH ([3]; males, d −6 (before dosing)) of the same compound?
Answer: 20.2 pg and 19.7 pg

Question: What about the MCHC ([3]; males, d −6 (before dosing)) of the same compound?
Answer: 31.4 g/dL and 32.0 g/dL

Question: And the MCV ([3]; males, d −6 (before dosing))?
Answer: 64 fL and 62 fL

Source: patent publication US20070099828A1, “BIOMARKERS FOR THE EFFICACY OF CALCITONIN AND PARATHYROID HORMONE TREATMENT” (priority 2003, published 2007)
